Reference: patent US10294202B2, “Pyrrolidinones as herbicides” (FMC Corporation, priority 2013, dated 2019)

Tests used:
pigweed = test: Test A pre-/postemergence herbicide test; assay type: in vivo, Amaranthus retroflexus
Outline: (§1)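 Directed soil spray to seeded pots (preemergence) or spray onto one- to two-leaf seedlings 2–10 cm tall (postemergence); loam/sand substrate throughout. Evaluated visually after about 10 days against untreated plants, 0 = no effect, 100 = complete control.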

corn [1] = test: Test C pre-/postemergence herbicide test; assay type: in vivo, Zea mays
Outline: (§2)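 Two application timings ran in parallel with identically formulated test chemicals (non-phytotoxic solvent, surfactant included): spray on seeded loam–sand soil, and spray on emerged plants 2 to 18 cm high. Evaluation at 13 to 15 days compared each species with controls, rated from 0 up to 100.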

corn [2] = test: Test A pre-/postemergence herbicide test; assay type: in vivo, Zea mays
Outline: as §1

barnyardgrass = test: Test A pre-/postemergence herbicide test; assay type: in vivo, Echinochloa crus-galli
Outline: as §1

nutsedge, yellow = test: Test C pre-/postemergence herbicide test; assay type: in vivo, Cyperus esculentus
Outline: as §2

morningglory = test: Test C pre-/postemergence herbicide test; assay type: in vivo, Ipomoea coccinea
Outline: as §2

soybean = test: Test C pre-/postemergence herbicide test; assay type: in vivo, Glycine max
Outline: as §2

blackgrass = test: Test C pre-/postemergence herbicide test; assay type: in vivo, Alopecurus myosuroides
Outline: as §2

oilseed rape = test: Test C pre-/postemergence herbicide test; assay type: in vivo, Brassica napus
Outline: as §2

lambsquarters = test: Test C pre-/postemergence herbicide test; assay type: in vivo, Chenopodium album
Outline: as §2

ducksalad = test: Test B flooded paddy test; assay type: in vivo, Heteranthera limosa; conditions: Flood, scale of 0 to 100 where 0 is no effect and 100 is complete control
Outline: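 2-leaf plants; flood 3 cm over soil; compound into paddy water; depth held. Greenhouse 13–15 d. Visual rating vs controls, 0 (no effect) to 100 (complete control); dash = not tested.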

[3] = Postemergence, 125 g ai/ha, visual rating on 0 to 100 scale (0 no effect, 100 complete control), approx. 10 days
[4] = Postemergence, 500 g ai/ha, 0 to 100 scale (0 no effect, 100 complete control)
[5] = Preemergence, 125 g ai/ha, 0 to 100 scale where 0 is no effect and 100 is complete control
[6] = Preemergence, 500 g ai/ha, visual rating on 0 to 100 scale (0 no effect, 100 complete control)
[7] = Postemergence, 31 g ai/ha, scale 0 to 100 (0 no effect, 100 complete control)
[8] = Postemergence, 62 g ai/ha, scale 0 (no effect) to 100 (complete control)
[9] = Postemergence, 125 g ai/ha, scale 0 to 100 (0 no effect, 100 complete control)
[10] = Postemergence, 250 g ai/ha, scale 0 to 100 (0 no effect, 100 complete control)
[11] = Preemergence, 31 g ai/ha, scale 0 to 100, 0 is no effect and 100 is complete control
[12] = Preemergence, 62 g ai/ha, scale 0 to 100 (0 no effect, 100 complete control)
[13] = Preemergence, 125 g ai/ha, scale 0 to 100
[14] = Postemergence, 125 g ai/ha, 0 to 100 scale, 0 is no effect, 100 is complete control
[15] = preemergence, 500 g ai/ha, 0 to 100 scale, 0 is no effect and 100 is complete control
[16] = Preemergence, 125 g ai/ha, scale 0 to 100 (0 no effect, 100 complete control)

O=C1NCC(c2cccc(C(F)(F)F)c2)C1C(=O)Nc1ccc(F)c(F)c1F (centres unmarked) [Compound 315]
50: Plant response rating, Pigweed (pigweed; [4]) | Corn plant response rating (corn [1]; [11])
10: Plant response rating, Corn (corn [1]; [9]) | Plant response rating, Morningglory (morningglory; [10]) | Plant response rating, Oilseed Rape (oilseed rape; [10])
25: Plant response rating, Morningglory (morningglory; [7]) | Morningglory plant response rating (morningglory; [12]) | Plant response rating, Blackgrass (blackgrass; [10])
30: Plant response rating, Pigweed (pigweed; [3]) | Plant response rating, Pigweed (pigweed; [5]) | Pigweed plant response rating (pigweed; [6]) | Plant response rating, Blackgrass (blackgrass; [9]) | Oilseed Rape plant response rating (oilseed rape; [12])
5: Oilseed Rape plant response rating (oilseed rape; [11])
70: Plant response rating, Corn (corn [2]; [3]) | Plant response rating, Lambsquarters (lambsquarters; [13])
35: Plant response rating, Morningglory (morningglory; [9]) | Plant response rating, Morningglory (morningglory; [13])
45: Plant response rating (scale of 0 to 100), Morningglory (morningglory; Preemergence, 250 g ai/ha)
20: Plant response rating, Nutsedge, Yellow (nutsedge, yellow; [13]) | Plant response rating (scale of 0 to 100), Nutsedge, Yellow (nutsedge, yellow; Preemergence, 250 g ai/ha) | Morningglory plant response rating (morningglory; [11])
40: Lambsquarters plant response rating (lambsquarters; [11]) | Lambsquarters plant response rating (lambsquarters; [12])
80: Corn plant response rating (corn [1]; [12]) | Plant response rating, Corn (corn [1]; [13]) | Plant response rating, Corn (corn [2]; [4]) | Plant response rating (scale of 0 to 100), Oilseed Rape (oilseed rape; Preemergence, 250 g ai/ha) | Plant response rating, Lambsquarters (lambsquarters; [10]) | Plant response rating (scale of 0 to 100), Lambsquarters (lambsquarters; Preemergence, 250 g ai/ha)
60: Plant response rating, Corn (corn [1]; [10]) | Blackgrass plant response rating (blackgrass; [11]) | Blackgrass plant response rating (blackgrass; [12]) | Plant response rating, Lambsquarters (lambsquarters; [7]) | Plant response rating, Lambsquarters (lambsquarters; [8])
100: Plant response rating, Ducksalad (ducksalad; 500 g ai/ha)
90: Plant response rating, Barnyardgrass (barnyardgrass; [3]) | Plant response rating, Barnyardgrass (barnyardgrass; [4]) | Plant response rating, Barnyardgrass (barnyardgrass; [5]) | Barnyardgrass plant response rating (barnyardgrass; [6])
15: Plant response rating, Soybean (soybean; [10])
0: Plant response rating, Corn (corn [1]; [7]) | Plant response rating, Corn (corn [1]; [8]) | Plant response rating, Nutsedge, Yellow (nutsedge, yellow; [7]) | Plant response rating, Nutsedge, Yellow (nutsedge, yellow; [8]) | Plant response rating, Nutsedge, Yellow (nutsedge, yellow; [9]) | Plant response rating, Nutsedge, Yellow (nutsedge, yellow; [10]) | Nutsedge, Yellow plant response rating (nutsedge, yellow; [11]) | Nutsedge, Yellow plant response rating (nutsedge, yellow; [12]) | Plant response rating, Soybean (soybean; [7]) | Plant response rating, Soybean (soybean; [8]) | Plant response rating, Soybean (soybean; [9]) | Soybean plant response rating (soybean; [12]) | Plant response rating, Soybean (soybean; [13]) | Plant response rating (scale of 0 to 100), Soybean (soybean; Preemergence, 250 g ai/ha) | Plant response rating, Blackgrass (blackgrass; [7]) | Plant response rating, Blackgrass (blackgrass; [8]) | Plant response rating, Oilseed Rape (oilseed rape; [7]) | Plant response rating, Oilseed Rape (oilseed rape; [8]) | Plant response rating, Oilseed Rape (oilseed rape; [9])
85: Plant response rating (scale of 0 to 100), Corn (corn [1]; Preemergence, 250 g ai/ha) | Plant response rating (scale of 0 to 100), Blackgrass (blackgrass; Preemergence, 250 g ai/ha) | Plant response rating, Oilseed Rape (oilseed rape; [13])
65: Plant response rating, Morningglory (morningglory; [8]) | Plant response rating, Blackgrass (blackgrass; [13]) | Plant response rating, Lambsquarters (lambsquarters; [9])

O=C1NCC(c2ccc(C(F)(F)F)c(F)c2)C1C(=O)Nc1ccccc1F (racemic) [Compound 246]
70: Plant response rating, Barnyardgrass (barnyardgrass; [14]) | Plant response rating, Barnyardgrass (barnyardgrass; [4]) | Plant response rating (scale of 0 to 100), Blackgrass (blackgrass; Preemergence, 250 g ai/ha)
80: Plant response rating, Barnyardgrass (barnyardgrass; [5]) | Plant response rating, Lambsquarters (lambsquarters; [16])
0: Plant response rating, Pigweed (pigweed; [14]) | Plant response rating, Pigweed (pigweed; [4]) | Plant response rating, Pigweed (pigweed; [5]) | Plant response rating, Pigweed (pigweed; [15]) | Corn plant response rating (corn [1]; [11]) | Corn plant response rating (corn [1]; [12]) | Plant response rating (scale of 0 to 100), Corn (corn [1]; Preemergence, 250 g ai/ha) | Plant response rating, Corn (corn [2]; [5]) | Plant response rating, Corn (corn [2]; [15]) | Plant response rating (scale of 0 to 100), Nutsedge, Yellow (nutsedge, yellow; Preemergence, 250 g ai/ha) | Soybean plant response rating (soybean; [11]) | Soybean plant response rating (soybean; [12]) | Plant response rating, Soybean (soybean; [16]) | Blackgrass plant response rating (blackgrass; [11]) | Plant response rating, Blackgrass (blackgrass; Preemergence, 62 g ai/ha, scale 0 to 100) | Oilseed Rape plant response rating (oilseed rape; [11]) | Plant response rating, Oilseed Rape (oilseed rape; [16])
100: Nutsedge, Yellow plant response rating (nutsedge, yellow; [12]) | Plant response rating, Nutsedge, Yellow (nutsedge, yellow; [16])
20: Plant response rating, Corn (corn [2]; [14])
95: Plant response rating, Ducksalad (ducksalad; 1000 g ai/ha)
90: Plant response rating, Barnyardgrass (barnyardgrass; [15]) | Plant response rating (scale of 0 to 100), Lambsquarters (lambsquarters; Preemergence, 250 g ai/ha)
5: Plant response rating, Corn (corn [1]; [16]) | Morningglory plant response rating (morningglory; [11]) | Morningglory plant response rating (morningglory; [12]) | Plant response rating (scale of 0 to 100), Morningglory (morningglory; Preemergence, 250 g ai/ha) | Plant response rating, Blackgrass (blackgrass; [16])
30: Plant response rating, Corn (corn [2]; [4]) | Oilseed Rape plant response rating (oilseed rape; [12]) | Plant response rating (scale of 0 to 100), Oilseed Rape (oilseed rape; Preemergence, 250 g ai/ha)
65: Lambsquarters plant response rating (lambsquarters; [11]) | Lambsquarters plant response rating (lambsquarters; [12])
10: Plant response rating, Morningglory (morningglory; [16]) | Plant response rating (scale of 0 to 100), Soybean (soybean; Preemergence, 250 g ai/ha)
85: Nutsedge, Yellow plant response rating (nutsedge, yellow; [11])
